The text below walks through data of PubChem BioAssay AID1996.

As usually defined, the kinetic solubility is the concentration staying in solution when a stock, usually in DMSO, is diluted into the medium.

Values after ≈ are worked out from the molar mass of the structure shown.

For this data set the following is noted: buffer; pH 7.4; 200.0 µM.
With `CC(=O)N/C(=C\c1ccc(F)cc1)C(=O)OCc1ccccc1`, the solubility (kinetic) is > 47 µg/mL.
As for `Cc1cccc(NC(=O)CCS(=O)(=O)c2ccccc2)n1`, the solubility (kinetic) is > 45.7 µg/mL.
With `COc1ccc(OC)c(NC(=O)Cn2cc(C=O)c3ccccc32)c1` the figure was 2.5 µg/mL (≈ 7.39 µM); with `CSCCC(NC(=O)COc1ccccc1)C(=O)O` (stereo unspecified), 31.7 µg/mL (≈ 112 µM); with `Cc1cnc(C(=O)OCC(=O)c2c[nH]c3ccccc23)cn1`, 13.7 µg/mL (≈ 46.4 µM).
With `CCOC(=O)c1cc(-c2csc(Nc3ccccc3Cl)n2)on1` the figure was 0.6 µg/mL (≈ 1.72 µM); with `COc1cccc(C(=O)NCCNC(=O)c2ccc(C)nc2)c1`, 45.7 µg/mL (≈ 146 µM); with `CCc1ccc(N2CC(C(=O)OC)CC2=O)cc1` (stereo unspecified), > 37.1 µg/mL.
With `COc1ccccc1NC(=O)CN(Cc1ccco1)C(=O)c1ccc(N2CCCC2=O)cc1` the figure was 64.9 µg/mL (≈ 145 µM).
The compound `O=C(c1ccccc1)C1CCN(c2ncccc2[N+](=O)[O-])CC1` displayed a solubility (kinetic) of 10.8 µg/mL (≈ 34.7 µM).
Next, `COC(=O)c1cc(S(=O)(=O)Nc2cccc(-c3cnco3)c2)oc1C`: 50.3 µg/mL (≈ 139 µM).
Next, `COc1ccc(-c2noc(-c3cccs3)n2)cc1OC`: 0.5 µg/mL (≈ 1.73 µM); `O=C(O)/C=C/C(=O)c1c(-c2ccccc2)[nH]c2ccccc12`: > 43.7 µg/mL.
With `COc1ccc2nc(C(F)(F)Cl)c(C#N)c(N)c2c1` the figure was 3.8 µg/mL (≈ 13.4 µM).
For `CCOC(CNc1ncnc2c1cnn2C)OCC`, the solubility (kinetic) was > 39.8 µg/mL.
With `Cc1cc(NC(=O)CSc2nnc(-c3ccco3)n2C)no1` the figure was > 47.9 µg/mL.
Next, `CN(CC(=O)NCc1ccc(F)cc1)Cc1cccc(Cl)c1`: 38.7 µg/mL (≈ 121 µM); `CN1C(=O)NC(c2ccc(O)cc2)C2=C1CN(c1ccccc1)C2=O` (stereo unspecified): 7 µg/mL (≈ 20.9 µM); `COc1cc2[nH]c(C(=O)NCC3CCCO3)cc2c(OC)c1OC` (stereo unspecified): > 50.2 µg/mL.
With `Cc1ccccc1-n1c(C)nc2ccsc2c1=O.Cl` the figure was > 43.9 µg/mL; with `Cc1ccc(CNC(=O)CNC(=O)c2ccc(C(C)(C)C)cc2)n1C`, > 51.2 µg/mL.
Take `O=C(CCCCC(=O)N1CCOCCOCCOCC1)OCc1ccccc1`: the kinetic solubility was determined as 56.1 µg/mL (≈ 143 µM).
For the compound `OCC1(Cc2ccccc2)CCN(Cc2cccc(F)c2F)CC1`, the solubility (kinetic) was found to be 43 µg/mL (≈ 130 µM).
With `CN1CCN(C(=O)CCN2C(=O)/C(=C\c3ccc(F)cc3)SC2=S)CC1` the figure was 22.3 µg/mL (≈ 56.7 µM).
Next, `O=C(CNC(=O)c1ccc(Br)o1)NCC1CCCO1` (stereo unspecified): > 49.7 µg/mL.
Next, `O=C(Nc1cccc(Cl)c1)Nc1ccon1`: 10.7 µg/mL (≈ 45 µM).
For the compound `CN1C(=O)C(CC(=O)O)S/C1=N\N=C\c1ccc(O)cc1O` (stereo unspecified), the solubility (kinetic) was > 48.5 µg/mL.
Next, `CC(C)C(C)NC(=O)CN1C(=O)NC2(CCc3ccccc32)C1=O` (stereo unspecified): > 49.4 µg/mL; `CNC(=O)Cn1c(C)cc(=O)c2cccc(OC)c21`: > 39 µg/mL.
Compound `CCOc1cc(C)c(S(=O)(=O)NCCCn2ccnc2)cc1C` gave a solubility (kinetic) of 41.2 µg/mL (≈ 122 µM).
`COC(=O)c1cccc(NC(=O)c2cnccn2)c1` yielded a solubility (kinetic) of 9.5 µg/mL (≈ 36.9 µM).
Next, `CCOc1ccc(S(=O)(=O)N2CCN(C(=O)COc3ccc(Br)cc3)CC2)cc1`: 2.3 µg/mL (≈ 4.76 µM); `N#Cc1cccc(Cn2cc(C(F)(F)F)ccc2=O)c1`: 41.7 µg/mL (≈ 150 µM).
Next, `O=C1CSC(c2ccccc2[N+](=O)[O-])N1c1ccc(O)cc1` (stereo unspecified): > 47.4 µg/mL; `COc1ccc([N+](=O)[O-])cc1NC(=O)c1cccnc1`: 28.8 µg/mL (≈ 105 µM); `O=C(CNCc1ccc(F)cc1)Nc1cc(S(=O)(=O)N2CCOCC2)ccc1Cl`: 8.4 µg/mL (≈ 19 µM).
With `CC1(C)CC(NC(=S)NCc2ccco2)CC(C)(C)N1`, the solubility (kinetic) was > 44.3 µg/mL.
The compound `Nc1c(C(=O)O)sc2nc(-c3ccccc3)cc(-c3ccc(F)cc3)c12` showed a solubility (kinetic) of 51.3 µg/mL (≈ 141 µM).
Next, `Cc1cc(C)c(S(=O)(=O)N2CCCC2)c(C)c1`: 30.4 µg/mL (≈ 120 µM); `CN(C(=O)CSc1nc2c(c(=O)[nH]1)CCC2)c1ccccc1`: > 47.3 µg/mL; `CC(=O)c1c(C)[nH]c(C(=O)Nc2cccc3ccccc23)c1C`: 5.9 µg/mL (≈ 19.3 µM).
As to `Cn1c(=O)c2c(ncn2CC(=O)OCC(=O)Nc2cc(Cl)ccc2C#N)n(C)c1=O`, the kinetic solubility worked out at 63.2 µg/mL (≈ 147 µM).
Next, `Cc1c([N+](=O)[O-])c(C(=O)NC2CCCC2)nn1C`: > 37.8 µg/mL.
With `FCCCOc1ccc(-c2nccc(-c3ccccn3)n2)cc1` the figure was 2.8 µg/mL (≈ 9.05 µM); with `CCCCNC(=O)c1cc2cc(OC)ccc2[nH]1`, 15.4 µg/mL (≈ 62.5 µM); with `NC(=O)c1cc(S(=O)(=O)NCc2cccs2)cs1`, 43.4 µg/mL (≈ 144 µM).
Regarding `O=C(Nc1ccccc1)/C(=C\c1ccco1)NC(=O)c1ccco1`, the solubility (kinetic) is > 48.3 µg/mL.
Next, `O=c1c2ccccc2nc2n1CCCN2`: > 30.2 µg/mL.
On to `c1ccc(-n2cc(CN3CCCC3)c(-c3ccc4c(c3)OCO4)n2)cc1`, for which the solubility (kinetic) is > 52.1 µg/mL.
Next, `Cc1nnc(NC(=O)CSc2nnc(C)c(=O)n2N)s1`: > 47 µg/mL; `CCOc1cccc2cc(C(=O)NCc3ccc(F)cc3)c(=N)oc12`: 0.7 µg/mL (≈ 2.06 µM).
